Structures are written as SMILES. Read-outs that look alike come from different tables or passages of the source.

One assay has as its target T1, kinase domain of cKIT (Homo sapiens, UniProt P10721).
T1 construct: The kinase domain of cKIT was assayed in 50 mM Hepes; purchased Upstate 14-559
Description: Inhibition of cKIT kinase signaling in an in vitro biochemical assay (alphascreen). The note with it: tested at about 1 μM, read-out: cKit percent inhibition. On the technique in general: Bead proximity is the source of the signal in Alpha formats.

The next assay concerns the target T2, kinase domain of PDGFRβ (Homo sapiens, UniProt P09619).
T2 construct: The kinase domain of PDGFRβ was assayed in 50 mM Hepes; purchased Invitrogen P3082
The assay can be described thus: Inhibition of PDGFRb kinase signaling in an in vitro biochemical assay (alphascreen). The note with it: tested at about 1 μM, read-out: PDGFRβ percent inhibition.

Assay [1] addresses T3, cytoplasmic domain of the human CSF-1R (Homo sapiens, UniProt P07333).
T3 construct: Recombinant protein corresponding to the cytoplasmic domain of the human CSF-1R; purchased Invitrogen Corporation, Carlsbad, Calif; PV3249
T3 sequence (P07333 539-972 limits assumed): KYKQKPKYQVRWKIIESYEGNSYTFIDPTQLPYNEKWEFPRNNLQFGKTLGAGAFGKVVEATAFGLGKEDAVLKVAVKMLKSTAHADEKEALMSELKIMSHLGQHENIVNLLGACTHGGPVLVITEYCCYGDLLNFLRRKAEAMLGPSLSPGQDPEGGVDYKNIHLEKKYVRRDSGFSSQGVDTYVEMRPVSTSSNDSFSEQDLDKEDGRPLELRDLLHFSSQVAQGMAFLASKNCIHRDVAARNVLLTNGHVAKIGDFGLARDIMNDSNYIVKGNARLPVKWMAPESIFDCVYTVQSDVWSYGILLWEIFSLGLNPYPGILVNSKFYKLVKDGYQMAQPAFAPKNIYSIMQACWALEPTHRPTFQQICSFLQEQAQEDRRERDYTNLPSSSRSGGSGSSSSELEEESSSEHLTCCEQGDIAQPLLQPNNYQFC
The assay can be described thus: In vitro kinase assay for colony stimulating factor-1 receptor (AlphaScreen). It is filed as biochemical. The note with it: tested at about 1 μM, read-out: CSF-1R percent inhibition. In a few lines: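 Tyrosine phosphorylation of a peptide substrate by 4 nM recombinant cytoplasmic-domain enzyme is measured at 1 μM ATP in Mn2+/Mg2+-containing Hepes buffer, pH 7.5. Detection uses PT66 AlphaScreen beads after overnight incubation.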

The subject of assay [2] is MNFS60 (murine AML cells). Description: Cell viability assay in MCSF dependent MNFS60 cells (Cell Titer Glo). It is filed as cell-based. Conditions: Mus musculus, tested at about 1 μM, read-out: M-NFS-60 CP percent inhibition. In short, it runs like this: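 EC50 values reflect MCSF-driven (10 ng/ml final) proliferation over 72 hrs at 37° C., read by CellTiter-Glo. Each condition was run in triplicate.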

T1 sequence (P10721 589-937 limits assumed): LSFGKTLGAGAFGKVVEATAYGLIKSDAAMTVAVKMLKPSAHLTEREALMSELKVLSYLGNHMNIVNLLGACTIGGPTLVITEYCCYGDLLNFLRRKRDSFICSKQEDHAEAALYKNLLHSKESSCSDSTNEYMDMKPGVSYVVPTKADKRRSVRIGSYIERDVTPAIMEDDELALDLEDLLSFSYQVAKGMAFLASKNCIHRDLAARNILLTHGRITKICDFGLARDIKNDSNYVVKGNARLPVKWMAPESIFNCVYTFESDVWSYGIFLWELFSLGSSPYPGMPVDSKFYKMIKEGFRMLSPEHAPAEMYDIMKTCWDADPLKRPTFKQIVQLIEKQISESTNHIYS
T2 sequence (P09619 600-962 limits assumed): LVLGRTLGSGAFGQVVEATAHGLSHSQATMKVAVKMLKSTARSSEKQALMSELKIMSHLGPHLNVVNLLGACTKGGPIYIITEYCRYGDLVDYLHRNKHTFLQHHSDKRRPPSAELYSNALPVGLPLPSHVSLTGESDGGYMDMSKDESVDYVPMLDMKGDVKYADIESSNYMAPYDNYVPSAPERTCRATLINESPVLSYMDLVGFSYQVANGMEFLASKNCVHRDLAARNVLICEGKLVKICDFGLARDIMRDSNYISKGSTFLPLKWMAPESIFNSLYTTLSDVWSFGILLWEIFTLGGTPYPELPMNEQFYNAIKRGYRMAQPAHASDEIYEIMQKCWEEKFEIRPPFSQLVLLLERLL

Take `O[C@@H]1CCCC[C@H]1Nc1nc2ccc(Oc3ccnc(-c4ccc(F)cc4)c3)cc2s1` [Example 288, (1R,2R)-2-(6-(2-(4-fluorophenyl)pyridin-4-yloxy)benzo[d]thiazol-2-ylamino)cyclohexanol]: the inhibition at 1 µM at kinase domain of cKIT (compounds of Table 3) turned out to be 78%; on kinase domain of PDGFRβ (compounds of Table 3), 24%; in assay [1] (compounds of Table 3), 100%; in assay [2] (compounds of Table 3), 70%.
With `CNC(=O)c1cc(Oc2ccc3nc(NCc4ccc(S(N)(=O)=O)cc4)sc3c2)ccn1` [Compound 161, 4-[2-(4-Sulfonamido-benzyl-amino)-benzothiazol-6-yloxy]-pyridine-2-carboxylic acid methylamide], the inhibition at 1 µM worked out at 0% on kinase domain of cKIT, 94% on kinase domain of PDGFRβ, 100% in assay [1] and 38% in assay [2] (MNFS60 cells).
In the case of `CC(C)CCNc1nc2ccc(Oc3ccnc4ccccc34)cc2s1` [Example 253, N-isopentyl-6-(quinolin-4-yloxy)benzo[d]thiazol-2-amine], the inhibition at 1 µM on kinase domain of cKIT (compounds of Table 3) was determined as 100%; at kinase domain of PDGFRβ (compounds of Table 3) it was 6%; in assay [1] (compounds of Table 3), 100%; in assay [2] (compounds of Table 3) it was 86%.
Turning to `CNC(=O)c1cc(Oc2ccc3nc(NC4CC=CCC4)oc3c2)ccn1` (centres unmarked) [Compound 70, 4-[2-(Cyclohex-3-enylamino)-benzooxazol-6-yloxy]-pyridine-2-carboxylic acid methylamide], the inhibition at 1 µM was determined as 0% at kinase domain of cKIT, 0% on kinase domain of PDGFRβ, 99% in assay [1] and 0% in assay [2] (MNFS60 cells).
As for `COCCNc1cc(Oc2ccc3nc(NCC4CCCCC4)sc3c2)ccn1` [Example 343, N-(cyclohexylmethyl)-6-(2-(2-methoxyethylamino)pyridin-4-yloxy)benzo[d]thiazol-2-amine], the inhibition at 1 µM was determined as 59% at kinase domain of cKIT, 28% at kinase domain of PDGFRβ, 100% in assay [1] and 57% in assay [2] (MCSF dependent MNFS60 cells).
`O[C@@H]1Cc2ccccc2[C@@H]1Nc1nc2ccc(Oc3ccnc4ccccc34)cc2s1` [Example 239, (1S,2R)-1-(6-(quinolin-4-yloxy)benzo[d]thiazol-2-ylamino)-2,3-dihydro-1H-inden-2-ol]: the inhibition at 1 µM was 100% at kinase domain of cKIT (compounds of Table 3), 25% on kinase domain of PDGFRβ (compounds of Table 3), 100% in assay [1] (compounds of Table 3) and 90% in assay [2] (compounds of Table 3).
In the case of `CC[C@H](C)[C@@H](CO)Nc1nc2ccc(Oc3ccnc4ccccc34)cc2s1` [Example 234, (2S,3S)-3-methyl-2-(6-(quinolin-4-yloxy)benzo[d]thiazol-2-ylamino)pentan-1-ol], the inhibition at 1 µM at kinase domain of cKIT (compounds of Table 3) is 64%; on kinase domain of PDGFRβ (compounds of Table 3) it was 56%; in assay [1] (compounds of Table 3), 100%; in assay [2] (compounds of Table 3), 78%.
For `CNC(=O)c1cc(Oc2cc(C)c3nc(NCC4CCCCC4)sc3c2)ccn1` [Example 374, 4-(2-(cyclohexylmethylamino)-4-methylbenzo[d]thiazol-6-yloxy)-N-methylpicolinamide], the inhibition at 1 µM was found to be 98% at kinase domain of cKIT, 41% on kinase domain of PDGFRβ, 99% in assay [1] and 3% in assay [2] (MCSF dependent MNFS60 cells).
As for `c1ccc2c(Oc3ccc4nc(NC5CCCCCC5)sc4c3)ccnc2c1` [Example 247, N-cycloheptyl-6-(quinolin-4-yloxy)benzo[d]thiazol-2-amine], the inhibition at 1 µM came out at 100% on kinase domain of cKIT (compounds of Table 3), 80% at kinase domain of PDGFRβ (compounds of Table 3), 100% in assay [1] (compounds of Table 3) and 100% in assay [2] (compounds of Table 3).
In the case of `CNC(=O)c1cc(Oc2ccc3nc(N[C@H]4CCCN(C(=O)c5ccccc5)C4)sc3c2)ccn1` [Example 336, (S)-4-(2-(1-benzoylpiperidin-3-ylamino)benzo[d]thiazol-6-yloxy)-N-methylpicolinamide], the inhibition at 1 µM on kinase domain of cKIT was found to be 23%; at kinase domain of PDGFRβ, 14%; in assay [1], 94%; in assay [2] (MCSF dependent MNFS60 cells), 17%.
In the case of `COC[C@H](Nc1nc2ccc(Oc3ccnc4ccccc34)cc2s1)[C@@H](O)c1ccccc1` [Example 233, (1S,2S)-3-methoxy-1-phenyl-2-(6-(quinolin-4-yloxy)benzo[d]thiazol-2-ylamino)propan-1-ol], the inhibition at 1 µM on kinase domain of cKIT (compounds of Table 3) was 85%; at kinase domain of PDGFRβ (compounds of Table 3), 84%; in assay [1] (compounds of Table 3), 100%; in assay [2] (compounds of Table 3) it was 59%.
In the case of `C[C@H](Nc1nc2ccc(Oc3ccnc(Cl)c3)cc2s1)C1CCCCC1` [Example 264, (S)-6-(2-chloropyridin-4-yloxy)-N-(1-cyclohexylethyl)benzo[d]thiazol-2-amine], the inhibition at 1 µM on kinase domain of cKIT (compounds of Table 3) came out at 25%; on kinase domain of PDGFRβ (compounds of Table 3), 4%; in assay [1] (compounds of Table 3) it was 97%; in assay [2] (compounds of Table 3), 3%.
On to `CNC(=O)c1cc(Oc2ccc3nc(NCc4ccccc4)sc3c2)ccn1` [Compound 138], for which the inhibition at 1 µM on kinase domain of cKIT (compounds of Table 3) was 100%; at kinase domain of PDGFRβ (compounds of Table 3), 37%; in assay [1] (compounds of Table 3) it was 100%; in assay [2] (compounds of Table 3) it was 105%.
With `CCNc1cc(Oc2ccc3nc(N[C@@H]4CCCC[C@H]4O)sc3c2)ccn1` [Example 369, (1R,2R)-2-(6-(2-(ethylamino)pyridin-4-yloxy)benzo[d]thiazol-2-ylamino)cyclohexanol], the inhibition at 1 µM at kinase domain of cKIT stood at 26%; at kinase domain of PDGFRβ, 12%; in assay [1] it was 100%; in assay [2] (MCSF dependent MNFS60 cells), 44%.
Take `OC[C@@H](Nc1nc2ccc(Oc3ccnc4ccccc34)cc2s1)c1ccccc1` [Example 235, (S)-2-phenyl-2-(6-(quinolin-4-yloxy)benzo[d]thiazol-2-ylamino)ethanol]: the inhibition at 1 µM came out at 100% at kinase domain of cKIT (compounds of Table 3), 81% on kinase domain of PDGFRβ (compounds of Table 3), 100% in assay [1] (compounds of Table 3) and 100% in assay [2] (compounds of Table 3).
Turning to `CNC(=O)c1cc(Oc2ccc3nc(NCCc4cccnc4)sc3c2)ccn1` [Example 315, N-methyl-4-(2-(2-(pyridin-3-yl)ethylamino)benzo[d]thiazol-6-yloxy)picolinamide], the inhibition at 1 µM at kinase domain of cKIT was 17%; at kinase domain of PDGFRβ it was 0%; in assay [1], 98%; in assay [2] (MCSF dependent MNFS60 cells) it was 27%.
Turning to `Cn1cc(-c2cc(Oc3ccc4nc(N[C@H](CO)C5CCCCC5)sc4c3)ccn2)cn1` [Example 353, (S)-2-cyclohexyl-2-(6-(2-(1-methyl-1H-pyrazol-4-yl)pyridin-4-yloxy)benzo[d]thiazol-2-ylamino)ethanol], the inhibition at 1 µM (on kinase domain of cKIT; at kinase domain of PDGFRβ; in assay [1]; in assay [2] (MCSF dependent MNFS60 cells)) was 100% in each case.
For the compound `OC[C@@H](Nc1nc2ccc(Oc3ccnc4ccccc34)cc2s1)C1CCCCC1` [Example 236, (S)-2-cyclohexyl-2-(6-(quinolin-4-yloxy)benzo[d]thiazol-2-ylamino)ethanol], the inhibition at 1 µM on kinase domain of cKIT (compounds of Table 3) was determined as 100%; at kinase domain of PDGFRβ (compounds of Table 3), 97%; in assay [1] (compounds of Table 3), 100%; in assay [2] (compounds of Table 3) it was 100%.
In the case of `CNC(=O)c1cc(Oc2ccc3nc(NC4CCC4)oc3c2)ccn1` [Compound 22, 4-(2-Cyclobutylamino-benzooxazol-6-yloxy)-pyridine-2-carboxylic acid methylamide], the inhibition at 1 µM amounted to 6% on kinase domain of cKIT (compounds of Table 3); 21% on kinase domain of PDGFRβ (compounds of Table 3); 0% at kinase domain of PDGFRβ; 100% in assay [1] (compounds of Table 3); 21% in assay [1]; 36% in assay [2] (compounds of Table 3).
`CNC(=O)c1cc(Oc2ccc3nc(NC4C[C@@H]5CC[C@H]4C5)sc3c2)ccn1` (some centres unmarked) [Compound 140]: the inhibition at 1 µM at kinase domain of cKIT (compounds of Table 3) is 27%; at kinase domain of PDGFRβ (compounds of Table 3), 100%; in assay [1] (compounds of Table 3), 100%; in assay [2] (compounds of Table 3), 25%.
As to `CNC(=O)c1cc(Oc2ccc3nc(NCC(O)COc4ccccc4)sc3c2)ccn1` (centres unmarked) [Compound 124], the inhibition at 1 µM on kinase domain of cKIT (compounds of Table 3) stood at 0%; on kinase domain of PDGFRβ (compounds of Table 3), 10%; in assay [1] (compounds of Table 3), 99%; in assay [2] (compounds of Table 3) it was 18%.

The inhibition is the relative decrease from the control value, in per cent.

For the origin of these results see US8173689B2 (Novartis AG, priority 2006, dated 2012).
